Data on 90 molecules can be found in PubChem BioAssay AID463229 (Broad Institute, 2010).

Values joined by “and” are separate entries in the source; they are usually repeats but may differ in a detail not shown here. Identical values can stand only once.

This experiment concerns INS-1E rat beta cells, no cytokines, CellTiter-Glo ATP, 48 h. The experiment in a line: cytokine-free beta-cell viability effect – INS-1E rat cells, ATP luminescence, cherry pick, counter-screen for beta-cell apoptosis protection project, dose response (AID 463229).
For orientation: AC50 means the concentration at which the activity in the assay is half-maximal. As for `COc1ccc(-[n+]2c(C)cc(/C=C3\Sc4ccccc4N3C)cc2C)cc1`, the AC50 is under 0.195 µM.
To `COc1ccccc1N1CCN(Cc2cc(Br)c(O)c3ncccc23)CC1` belongs 5.72 µM; to `O=[N+]([O-])c1cnc(Sc2ccncn2)s1`, 5.75 µM.
For `COc1ccc(C)cc1NS(=O)(=O)c1ccc(NC(=O)CN(c2cc([N+](=O)[O-])ccc2C)S(C)(=O)=O)cc1`, the AC50 was 1.11 µM.
To `COc1ccc(-c2nc(-c3ccccn3)no2)cc1` belongs 3.11 µM.
The figure for `CN1/C(=C\C(=O)C[n+]2ccc(C(=O)c3ccccc3)cc2)C(C)(C)c2ccccc21` is 1.26 µM; for `O=C(CSC1c2ccccc2-c2ccccc21)N/N=C/c1ccccc1O` it is 6.8 µM; for `CCCCc1ccc(N/C(N)=N/c2nc(C)cc(C)n2)cc1` it is 5.12 µM.
To `Cc1[nH]n(-c2ccc(Br)cc2)c(=O)c1/C=N/NC(=O)c1ccccc1` belongs 2.13 µM; to `CCOC(=O)COc1ccc2ccccc2c1/C=C/[N+](=O)[O-]`, 10.6 µM; to `O=C(N/N=C/c1sc2ccccc2c1O)c1ccccc1`, 3.92 µM.
As for `COC(=O)C1=C(C)N(Cc2ccccc2)C(=NCc2cccc(C(F)(F)F)c2)N[C@H]1c1cccc(F)c1`, the AC50 is 8.07 µM.
The figure for `N#Cc1c2ccc([N+](=O)[O-])cc2[n+]([O-])n1-c1ccccc1` is 5.32 µM; for `COc1ccc(N/N=C/c2c(C(=O)O)ccc3ccccc23)cc1` it is 4.35 µM.
The figure for `O=C(Nc1ccc(OCC(F)(F)C(F)F)c(C(F)(F)F)c1)c1ccccc1O` is 6.48 µM; for `O=S(=O)(C/C(=C/CO)S(=O)(=O)c1ccccc1)c1ccccc1` it is 10.9 µM.
Consider `N#C/C(N=Nc1ccccc1O)=N\Nc1ccccc1O`, for which the AC50 is 4.12 µM.
To `Cc1ccc2[nH]c(C(=O)N/N=C/c3ccccc3O)c(C)c2c1` belongs 2.33 µM.
To `Cc1ccc(S(=O)(=O)CC2CSc3nc4ccccc4n32)cc1` (stereo not given) belongs 6.51 µM; to `CC(C)Oc1ccc(C(CCN)C2CCCCC2)cc1` (stereo not given), 13.3 µM.
To `Cc1nnsc1C(=O)N/N=C/c1ccc2ccccc2c1O` belongs 1.81 µM; to `COc1ccc(Cc2nnc(N/N=C/c3ccccc3O)[nH]c2=O)cc1OC`, 4.32 µM; to `COc1cccc(/C=N/NC(=O)CN2CC(c3ccccc3)CC2=O)c1O` (stereo not given), 18.7 µM.
Regarding `CCC(=O)NC(c1ccc(OC)cc1)c1cc(Cl)c2cccnc2c1O` (stereo not given), the AC50 is 6.63 µM.
As to `Cc1cccc(/C=N/NC(=O)c2c(-c3ccccc3)noc2C)c1O`, the AC50 is 7.61 µM.
To `Clc1ccc(C[n+]2c(-c3ccccc3)cc(-c3ccccc3)cc2-c2ccccc2)cc1` belongs 2.01 µM.
In the case of `CCCCCCCCCCCCCCCC[N+](C)(C)CCN(Cc1ccc(OC)cc1)c1ncccn1`, the AC50 was 4.23 µM.
In the case of `CCS(=O)(=O)c1ncc(Cl)c(C(=O)Nc2ccc(S(=O)(=O)N3CCC(C)CC3)cc2)n1`, the AC50 was 7.4 µM.
The figure for `O=C(Oc1c(CN2CCOCC2)cc(Cl)c2cccnc12)c1ccccc1` is 17.1 µM; for `CN1CCN(C(c2ccc(C(F)(F)F)cc2)c2cc(Cl)c3cccnc3c2O)CC1` (stereo not given) it is 6.69 µM; for `CN1/C(=C\C(=S)NC(=O)c2ccccc2Cl)C(C)(C)c2ccccc21` it is 7.37 µM.
To `C/C(=N/Nc1nc(-c2ccccc2)cc(-c2ccc(F)cc2)n1)c1cccc(N)c1` belongs 15.1 µM.
In the case of `O=C1C=C(Nc2ccccc2O)c2ccccc2C1=O`, the AC50 is 8.04 µM.
The figure for `CC(C)c1ccc(COc2ccc(C(=O)N3CCOCC3)cc2)cc1` is 12.9 µM; for `CCN1CCN(C(c2ccc(C(F)(F)F)cc2)c2ccc3cccnc3c2O)CC1` (stereo not given) it is 4.72 µM; for `Cc1cc(C(=O)N/N=C/c2cc(Br)cc(Br)c2OC(=O)c2cccc(F)c2)n[nH]1` it is 4.79 µM.
To `CC[C@@]1(O)C(=O)OCc2c1cc1n(c2=O)Cc2cc3c(N)cccc3nc2-1` belongs under 0.195 µM; to `CC(=O)Nc1ccc(S(=O)(=O)NC2=C(N3CCN(c4ccc(F)cc4)CC3)C(=O)c3ccccc3C2=O)cc1`, 7.51 µM; to `C=C1[C@@H](O)[C@@H]2O[C@]3(CC[C@H](/C=C/[C@@H](C)[C@@H]4CC(C)=CC5(O[C@H](C[C@@](C)(O)C(=O)OC)CC[C@H]5O)O4)O3)CC[C@H]2O[C@@H]1[C@@H](O)C[C@H](C)[C@H]1OC2(CCCCO2)CC[C@H]1C` (stereo not given in full), under 0.195 µM.
To `Cc1ccc(Nc2c(-c3ccccn3)nc3cc(C)ccn23)cc1` belongs 7.49 µM; to `O=c1c2c(nc3c(-c4ccc(Cl)cc4)c[nH]n13)CCCC2`, 7.43 µM.
Take `COc1cnc(-c2ccccn2)nc1N(C)C`: the AC50 is 21.7 µM.
Regarding `O=C(Nc1ccc(Cl)cc1)Nc1csc([N+](=O)[O-])c1`, the AC50 was 7.65 µM.
On to `CCN(CC)S(=O)(=O)c1cc(NC(=O)CNc2cccc(S(=O)(=O)N3CCCC3)c2)ccc1C`, for which the AC50 is 7.43 µM.
To `O=[N+]([O-])c1c(Nc2ccc(O)cc2)cc(Cl)c2nonc12` belongs 8.76 µM; to `O=C(N/N=C/c1sc2ccccc2c1O)c1cccc2ccccc12`, 4.8 µM; to `Cc1ccc(N(CC(=O)Nc2cc(C)cc(C)c2)S(=O)(=O)c2c(C)noc2C)cc1`, 14.5 µM.
The figure for `S=c1[nH]nc(-c2cc(-c3ccccc3)n[nH]2)n1/N=C/C(Br)=C/c1ccccc1` is 8.81 µM.
The figure for `COc1cccc(/C=N/Nc2ncc(C(F)(F)F)cc2Cl)c1O` is 4.26 µM.
For the molecule `O=C(/C(=C/c1ccc(Cl)cc1)c1nc2ccccc2[nH]1)c1ccccc1`, the AC50 was 4.04 µM.
The figure for `COc1cc(-c2nc3ccc(C)cn3c2NCc2ccccc2)ccc1-c1cccc(Cl)c1` is 4.66 µM; for `CC(C)(C)c1cc(NCCCn2ccnc2)n2ncc(-c3ccccc3)c2n1` it is 15 µM.
To `COc1ccc(CCNC(=O)c2cc3c(=O)n4cccc(C)c4nc3n(Cc3ccco3)c2=N)cc1OC` belongs 9.18 µM.
For the molecule `CCc1cc[n+](C2=C([O-])c3ccccc3C(=O)/C2=N\S(=O)(=O)c2cccs2)cc1`, the AC50 was 9.35 µM.
The figure for `Nc1nonc1-n1nnc(C(=O)N/N=C/c2cc(Cl)ccc2O)c1CN1CCCCCC1` is 10.5 µM.
To `O=C(CNC(=O)c1ccccc1O)N/N=C/c1cc(Br)ccc1OC(=O)/C=C/c1ccco1` belongs 10.7 µM; to `CCc1ccc2[nH]c3nc(N/N=C/c4ccc(O)cc4O)nnc3c2c1`, 21.2 µM.
To `COc1ccc(C(NC(=O)C(C)C)c2ccc3cccnc3c2O)cc1` (stereo not given) belongs 2.84 µM.
For `CC(=O)NN1C(=O)c2ccc3c4c(ccc(c24)C1=O)C(=O)N(NC(C)=O)C3=O`, the AC50 is 3.65 µM.
Regarding `COc1cccc(/C=N/NC(=O)c2c(C)nc3ccc(Cl)cn23)c1O`, the AC50 is 3.81 µM.
As for `Cc1[nH]n(-c2ccccc2)c(=O)c1N=Nc1c(O)cc(S(=O)(=O)N(C)C)c2ccccc12`, the AC50 was 3.72 µM.
To `CCCCCCCCn1c2c(c(=N)c3c1CCC3)CCCC2` belongs under 0.195 µM; to `C=C[C@H](CC(C)C)N(Cc1ccccc1)S(=O)(=O)N(Cc1ccc(OC)cc1)[C@H](C=C)CC(C)C`, 5.73 µM.
To `O=C(NC1CCCC1)c1cc(COc2ccc3ncccc3c2)on1` belongs 5.91 µM.
To `CCOC(=O)N1CCC(NC(=O)C2CCCN(Cc3nc(-c4cccc(Cl)c4)oc3C)C2)CC1` (stereo not given) belongs 6.01 µM; to `Cc1ccc(NS(=O)(=O)c2cc([N+](=O)[O-])ccc2NNC(=S)Nc2cc(C)ccc2C)c(C)c1`, 4.65 µM; to `CC(CCCC(C)(C)O)NC(=O)c1cc(COc2ccc3ncccc3c2)on1` (stereo not given), 8.48 µM.
For `Cc1ccccc1NC1=C/C(=N\S(=O)(=O)c2cccs2)c2ccccc2C1=O`, the AC50 was 1.79 µM.
The figure for `Cc1ccc(-c2nn(-c3ccccc3)cc2/C=C/C(=O)Nc2cccc(S(N)(=O)=O)c2)cc1` is 2.75 µM; for `CCN(CC)CCNC(=O)c1ccc(NC(=O)c2cn(-c3ccccc3)nc2-c2cccs2)cc1` it is 15.7 µM.
As to `S=C(NCc1ccc(Cl)cc1)NC12CC3CC(CC(C3)C1)C2`, the concentration at half-maximal activity (AC50) is 13.9 µM.
To `Cc1cc(C)c(S(=O)(=O)/N=C2\C=C(Nc3ccc(C(=O)O)cc3)C(=O)c3ccccc32)c(C)c1` belongs 5.39 µM; to `O=C(Nc1cccnc1)C1(F)C(F)(F)C(F)(F)C(F)(F)C(F)(F)C1(F)F`, 3.56 µM.
To `Cc1ccc(-c2nc(NC(=O)c3nn(C)cc3[N+](=O)[O-])sc2C)cc1` belongs 5.47 µM.
As to `CC(=O)c1cn(CCOc2cc(C)ccc2C)c2ccccc12`, the AC50 is 4.67 µM.
Consider `Cc1c(C(=O)N/N=C/c2c(O)ccc3ccccc23)nnn1-c1nonc1N`, for which the AC50 is 2.18 µM.
In the case of `CCc1c(C)nc2ncnn2c1NCCc1ccc(OC)cc1`, the AC50 is 6.85 µM.
To `CC(C)(C)c1ccc(OCc2ccc(C(=O)N/N=C/c3ccc(O)c(O)c3)cc2)cc1` belongs 8.35 µM; to `O=C(NCC#CCSc1nnc(-c2cccc3ccccc23)o1)c1cccs1`, 1.9 µM; to `CCCC[n+]1ccn(C2=C([O-])c3ccccc3C(=O)/C2=N\S(=O)(=O)c2ccc(Cl)cc2)c1`, 15.8 µM.
The figure for `Cc1ccc(Nc2c(-c3ccccn3)nc3ccc(C)cn23)cc1` is 7.28 µM; for `Cc1ccc(NC(=O)c2nc(S(=O)(=O)Cc3ccccc3)ncc2Cl)cc1` it is 15.3 µM.
The figure for `CCN1CCN(Cc2ccc(NC(=O)c3ccc(C)c(NC(=O)C(=O)c4c[nH]c5ccccc45)c3)cc2C(F)(F)F)CC1` is 13.8 µM and 7.23 µM; for `CCN(CC)CCOC(=O)c1ccc(N/C=C(/C#N)c2nc(-c3ccc4c(c3)OCO4)cs2)cc1` it is 14.2 µM; for `C#CCOCCOCCOCCNc1nc(N2CCN(C(=O)CCCCCCCCCCNC(=O)Cn3cc(CCCCCN)nn3)CC2)nc(N2CCN(C(=O)CCCCCCCCCCNC(=O)[C@H]([C@@H](C)CC)n3cc(CCCCN=C(N)N)nn3)CC2)n1` it is 8.89 µM.
In the case of `Cc1ccc(C)c(N=Nc2ccc(O)c3ncccc23)c1`, the AC50 was 3.98 µM.
To `CCOC(=O)c1c(NC(=O)/C=C/C(=O)O)sc(C)c1-c1ccc(C(C)(C)C)cc1` belongs 7.17 µM; to `Cc1ccc(/C=C/C(=O)c2ccc([N+](=O)[O-])o2)cc1`, 7.11 µM; to `CCN1CCN(CCCNC(=O)c2ccc3c(c2)NC(=O)/C(=C\c2cccc(C)c2)S3)CC1`, 12.3 µM.
To `Cc1ccc(C)c(NC(=S)NC(NC(=O)Cc2cccc3ccccc23)C(Cl)(Cl)Cl)c1` (stereo not given) belongs 5.67 µM.
